Results taken from ChEMBL document CHEMBL1150977, “A quantitative analysis of kinase inhibitor selectivity” (Nat Biotechnol, 2008).

What was measured:
[1] = biological target: Mitogen-activated protein kinase 3 (Homo sapiens, UniProt P27361)
[2] = biological target: Ribosomal protein S6 kinase alpha-4 (Homo sapiens, UniProt O75676)
[3] = biological target: T1, Calcium/calmodulin-dependent protein kinase type IV (Homo sapiens, UniProt Q16566)
T1 sequence (Q16566 whole entry): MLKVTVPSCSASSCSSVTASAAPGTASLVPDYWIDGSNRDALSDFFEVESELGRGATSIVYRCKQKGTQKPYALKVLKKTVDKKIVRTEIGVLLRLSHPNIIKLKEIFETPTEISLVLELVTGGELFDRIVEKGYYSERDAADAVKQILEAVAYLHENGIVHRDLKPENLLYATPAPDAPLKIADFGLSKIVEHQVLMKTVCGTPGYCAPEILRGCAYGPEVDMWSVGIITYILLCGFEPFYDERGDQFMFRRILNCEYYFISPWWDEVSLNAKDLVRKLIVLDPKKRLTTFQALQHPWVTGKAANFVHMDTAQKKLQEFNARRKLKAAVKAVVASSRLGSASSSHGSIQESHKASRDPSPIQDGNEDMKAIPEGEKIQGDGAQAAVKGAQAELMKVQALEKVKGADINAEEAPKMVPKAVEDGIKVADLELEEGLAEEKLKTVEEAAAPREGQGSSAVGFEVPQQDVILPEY

[4] = biological target: Mitogen-activated protein kinase 14 (Homo sapiens, UniProt Q16539)
Aurora kinase B = Aurora kinase B (Homo sapiens, UniProt Q96GD4)
[5] = biological target: T2, Serine/threonine-protein kinase D3 (Homo sapiens, UniProt O94806)
T2 sequence (O94806 whole entry): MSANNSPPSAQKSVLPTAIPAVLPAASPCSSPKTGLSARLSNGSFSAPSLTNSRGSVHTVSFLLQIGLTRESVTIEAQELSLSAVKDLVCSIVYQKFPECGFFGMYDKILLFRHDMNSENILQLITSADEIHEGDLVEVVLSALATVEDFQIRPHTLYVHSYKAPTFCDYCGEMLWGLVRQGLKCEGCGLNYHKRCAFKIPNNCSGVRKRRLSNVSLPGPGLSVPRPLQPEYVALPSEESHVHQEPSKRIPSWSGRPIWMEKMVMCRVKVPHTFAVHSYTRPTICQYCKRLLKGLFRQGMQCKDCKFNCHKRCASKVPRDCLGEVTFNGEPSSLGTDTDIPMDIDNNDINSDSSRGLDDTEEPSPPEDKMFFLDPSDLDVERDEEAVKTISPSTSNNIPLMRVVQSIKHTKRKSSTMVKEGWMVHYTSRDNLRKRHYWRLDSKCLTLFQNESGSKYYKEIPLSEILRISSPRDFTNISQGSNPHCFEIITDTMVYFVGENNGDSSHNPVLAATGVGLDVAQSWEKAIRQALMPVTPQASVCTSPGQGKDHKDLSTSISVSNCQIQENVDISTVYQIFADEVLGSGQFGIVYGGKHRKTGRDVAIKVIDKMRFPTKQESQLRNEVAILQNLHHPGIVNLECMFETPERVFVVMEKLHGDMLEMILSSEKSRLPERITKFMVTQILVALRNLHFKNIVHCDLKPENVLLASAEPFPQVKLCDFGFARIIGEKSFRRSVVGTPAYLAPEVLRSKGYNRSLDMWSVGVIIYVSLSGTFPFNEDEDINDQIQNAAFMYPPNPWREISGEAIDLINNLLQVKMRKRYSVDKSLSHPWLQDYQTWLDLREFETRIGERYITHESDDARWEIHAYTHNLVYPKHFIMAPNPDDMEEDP

[6] = biological target: Epidermal growth factor receptor (Homo sapiens, UniProt P00533, S752-I759DEL)
[7] = biological target: Epidermal growth factor receptor (Homo sapiens, UniProt P00533, L747-T751DEL)
[8] = biological target: Epidermal growth factor receptor (Homo sapiens, UniProt P00533, L861Q)
[9] = biological target: Epidermal growth factor receptor (Homo sapiens, UniProt P00533)
[10] = biological target: Epidermal growth factor receptor (Homo sapiens, UniProt P00533, G719S)
[11] = biological target: Epidermal growth factor receptor (Homo sapiens, UniProt P00533, G719C)
[12] = biological target: Epidermal growth factor receptor (Homo sapiens, UniProt P00533, E746-A750DEL)
[13] = biological target: Epidermal growth factor receptor (Homo sapiens, UniProt P00533, L858R)
[14] = biological target: Epidermal growth factor receptor (Homo sapiens, UniProt P00533, A750P/L747-E749DEL)
[15] = biological target: Epidermal growth factor receptor (Homo sapiens, UniProt P00533, L747-S752DEL/P753S)
[16] = biological target: Receptor-type tyrosine-protein kinase FLT3 (Homo sapiens, UniProt P36888, D835H)
[17] = biological target: Cyclin-dependent kinase 9 (Homo sapiens, UniProt P50750)

## CCOc1cc2ncc(C#N)c(Nc3ccc(F)c(Cl)c3)c2cc1NC(=O)/C=C/CN(C)C [PELITINIB]
[1]
  Kd: > 10 µM
[2]
  Kd: > 10 µM
[3]
  Kd: > 10 µM
[4]
  Kd: > 10 µM
Aurora kinase B
  Kd: > 10 µM
[5]
  Kd: > 10 µM

## Nc1nc(Nc2ccc(S(N)(=O)=O)cc2)nn1C(=O)c1c(F)cccc1F [JNJ-7706621]
[6]
  Kd: > 10 µM
[2]
  Kd: 3 µM
[7]
  Kd: > 10 µM
[8]
  Kd: > 10 µM
[3]
  Kd: > 10 µM
[9]
  Kd: > 10 µM
[10]
  Kd: > 10 µM
[11]
  Kd: > 10 µM
[12]
  Kd: > 10 µM
[13]
  Kd: > 10 µM
[14]
  Kd: > 10 µM
[15]
  Kd: > 10 µM

## Oc1ccc(-c2nc(-c3ccncc3)c(-c3ccc(F)cc3)[nH]2)cc1 [SB-202190]
[1]
  Kd: > 10 µM
[2]
  Kd: > 10 µM
[3]
  Kd: > 10 µM
[16]
  Kd: > 10 µM
Aurora kinase B
  Kd: > 10 µM
[5]
  Kd: > 10 µM
[17]
  Kd: > 10 µM

## COCC(=O)NC/C=C/c1ccc2ncnc(Nc3ccc(Oc4ccc(C)nc4)c(C)c3)c2c1 [CP-724714]
[1]
  Kd: > 10 µM
[2]
  Kd: > 10 µM
[3]
  Kd: > 10 µM
[16]
  Kd: > 10 µM
[4]
  Kd: > 10 µM
Aurora kinase B
  Kd: > 10 µM
[5]
  Kd: > 10 µM

## NC(=O)c1ccc(-c2nc(-c3ccc4c(c3)OCO4)c(-c3ccccn3)[nH]2)cc1 [SB-431542]
[1]
  Kd: > 10 µM
[6]
  Kd: > 10 µM
[2]
  Kd: > 10 µM
[7]
  Kd: > 10 µM
[8]
  Kd: > 10 µM
[3]
  Kd: > 10 µM
[9]
  Kd: > 10 µM
[10]
  Kd: > 10 µM
[11]
  Kd: > 10 µM
[12]
  Kd: > 10 µM
Aurora kinase B
  Kd: > 10 µM
[13]
  Kd: > 10 µM
[17]
  Kd: > 10 µM
[14]
  Kd: > 10 µM
[15]
  Kd: > 10 µM

## CCN1CCN(Cc2ccc(NC(=O)Nc3ccc(Oc4cc(NC)ncn4)cc3)cc2C(F)(F)F)CC1 [AST-487]
Aurora kinase B
  Kd: > 10 µM
